Literature values as cited in US6313179A, “Treatment of hyperproliferative skin disorders with C18 to C20 aliphatic alcohols” (Avanir Pharmaceuticals, priority 1998, dated 2001).

Conditions: oral ingestion; U.S. Pat. No. 3,031,376; cited from earlier work

Row | Compound | physical performance of athletes
1 | CCCCCCCCCCCCCCCCCCCCCCCCCCO [n-hexacosanol] | improved physical performance of athletes
2 | CCCCCCCCCCCCCCCCCCCCCCCCCCCCO [n-octacosanol, reference compound] | improved physical performance of athletes
3 | CCCCCCCCCCCCCCCCCCCCCCCCO [n-tetracosanol] | improved physical performance of athletes
4 | CCCCCCCCCCCCCCCCCCCCCCCCCCCCCCO [triacontanol, reference compound] | improved physical performance of athletes
